Results: the NIST ThermoML archive (doi:10.1021/acs.jced.6b00496)

Key:
[1] = 101.33 kPa, Liquid; for speed of sound: Sing-around technique in a fixed-path interferometer; for mass density: Vibrating tube method
[2] = xn = mol fraction of the nth substance listed; details: 81.5 kPa, Liquid, x2 = 0; for speed of sound: Sing-around technique in a fixed-path interferometer; for mass density: Vibrating tube method

CCn1cc[n+](C)c1.F[B-](F)(F)F [1-ethyl-3-methylimidazolium tetrafluoroborate]
[1]
Details | mass density [kg/m3] | speed of sound [m/s]
293.15 K | 1285.95 | 1640.4
298.15 K | 1282.14 | 1628.4
303.15 K | 1278.34 | 1616
308.15 K | 1274.55 | 1604.9
313.15 K | 1270.78 | 1593.4
318.15 K | 1267.03 | 1582
323.15 K | 1263.3 | 1570.6
328.15 K | 1259.58 | 1559.4
333.15 K | 1255.88 | 1548.2
338.15 K | 1252.2 | 1537.2
343.15 K | 1248.54 | 1526.2

CC(=O)N(C)C [N,N-dimethylethanamide]
[1]
Details | mass density [kg/m3] | speed of sound [m/s]
293.15 K | 941.341 | 1477.6
298.15 K | 936.729 | 1457.4
303.15 K | 932.112 | 1437.4
308.15 K | 927.492 | 1417.5
313.15 K | 922.863 | 1397.8
318.15 K | 918.23 | 1378.2
323.15 K | 913.586 | 1358.6
328.15 K | 908.932 | 1339.2
333.15 K | 904.268 | 1319.9
338.15 K | 899.595 | 1300.8
343.15 K | 894.909 | 1281.7

CC(=O)N(C)C [N,N-dimethylethanamide] + CCn1cc[n+](C)c1.F[B-](F)(F)F
[2]
Details | mass density [kg/m3] | speed of sound [m/s]
293.15 K | 941.341 | 1477.6
298.15 K | 936.729 | 1457.4
303.15 K | 932.112 | 1437.4
308.15 K | 927.492 | 1417.5
313.15 K | 922.863 | 1397.8
318.15 K | 918.23 | 1378.2
323.15 K | 913.586 | 1358.6
328.15 K | 908.932 | 1339.2
333.15 K | 904.268 | 1319.9
338.15 K | 899.595 | 1300.8
343.15 K | 894.909 | 1281.7

CN(C)C=O [dimethylformamide]
[1]
Details | mass density [kg/m3] | speed of sound [m/s]
293.15 K | 948.743 | 1477.1
298.15 K | 943.978 | 1457.6
303.15 K | 939.201 | 1438
308.15 K | 934.417 | 1418.7
313.15 K | 929.62 | 1399.3
318.15 K | 924.812 | 1380
323.15 K | 919.993 | 1360.9
328.15 K | 915.159 | 1341.7
333.15 K | 910.312 | 1322.7
338.15 K | 905.445 | 1303.7
343.15 K | 900.565 | 1284.8

CN(C)C=O [dimethylformamide] + CCn1cc[n+](C)c1.F[B-](F)(F)F
[2]
Details | mass density [kg/m3] | speed of sound [m/s]
293.15 K | 948.743 | 1477.1
298.15 K | 943.978 | 1457.6
303.15 K | 939.201 | 1438
308.15 K | 934.417 | 1418.7
313.15 K | 929.62 | 1399.3
318.15 K | 924.812 | 1380
323.15 K | 919.993 | 1360.9
328.15 K | 915.159 | 1341.7
333.15 K | 910.312 | 1322.7
338.15 K | 905.445 | 1303.7
343.15 K | 900.565 | 1284.8
